Legend:
rice callus cells = experiment: CLSM observation of intracellular uptake and distribution of Citrine after vacuum/pressure infiltration; format: cell-based, Oryza sativa, cv. Nipponbare; settings: for distribution of Citrine in callus cell: 5-day callus cell, 72-hours incubation, FM 4-64 stain, 3D images and optical sections
Experimental: Mature dry seeds of Oryza sativa, cv. Nipponbare (O. sativa) were surface-sterilized with 70% ethanol (v/v) for 1 min, followed by 30 min in 50% (v/v) commercial bleach with rotation at 20 rpm. Seeds were then washed 8-10 times with sterile distilled water and dried on autoclaved Kimwipes (3 mm) for 5 min. For callus induction, sixteen seeds were inoculated petri plate on callus induction medium (N6D) and incubated at 30° C. with continuous light in a plant bio-incubator (TOMY CLE-303 cultivation chamber Tokyo, Japan). N6D was prepared using basal 30 g/L […], 0.3 g/L casamino acid, 2.8 g/L L-proline, 2 mg/L 2,4-dichlorophenoxyacetic acid (2,4-D), 4.0 g/L CHO (N6) basal salt mix, gelled with 4 g/L phytagel and pH adjusted to 5.8 before autoclaving. After 5-day cultivation, the callus was cut into approximately four equal parts. This callus was used as the 5-day callus in this work. On the other hand, after 21-day cultivation, the self-shedding callus was collected and used as the 21-day callus. For the callus regeneration test, the callus was cut to small pieces in different sizes, then transferred onto a regeneration medium and incubated at 30° C. with continuous light for 7 days. […] The regeneration medium was prepared based on using 4 g/L MS powder with vitamin, supplied with 30 g/L sorbitol, 30 g/L sucrose, 4 g/L casamino acid, 2 mg/L 2,4-D and 2 mg/L 1-Naphthaleneacetic acid (NAA), gelled with 4 g/L phytagel and pH was adjusted to 5.8 before autoclaving. The chemicals used in this research are purchased from Sigma (Sigma-Aldrich, MO, USA) and Wako (Wako, Pure Chemical, Tokyo, Japan).
(§1) 10 mg rice callus (5-day or 21-day) was immersed in 100 μL of fresh prepared complex solutions in a screw cap tube. Subsequently depressurized the solution at −0.08 MPa for 1 min and compressed at +0.08 MPa for 1 min. After this treatment, the callus was transferred onto the N6D medium, and incubated at 30° C. in the dark until use.
Confocal laser scanning microscopy (CLSM, ZeissLSM 700, Carl Zeiss, Oberkochen, Germany) was used to evaluate the intracellular uptake of CPP-FP-Citrine every 24 hours. Before the observation by CLSM, the callus on N6D was transferred into a 1.5 mL Eppendorf tube and washed thoroughly with Milli-q water contains 0.1% tween 20 for five times to remove the Citrine on cell surface. Thereafter, the callus was cut into tiny pieces and mounted on glass slides, then covered with coverslips. CPP-FP-Citrine was detected by setting the excitation at 488 nm and emission in a range of 505-600 nm. For distinguish plasma membrane region and cytoplasm region, the callus was additionally incubated with FM4-64 (20 µM, 20 min at RT) for cell membrane stain, and detected by setting the excitation at 405 nm and emission at 560-700. Furthermore, quantification of the intracellular Citrine by western blot immunoassay. After 72-hour post-infiltration, the protein was extracted from rice callus. The rice callus was frozen with liquid nitrogen, and then grinding in a mortar into powder. 50 μl of 10 mM Tris-HCL buffer (pH 7.4) containing 10 μL Halt protease inhibitor cocktail (Thermo Scientific, MA, USA) was added to 0.1 g callus powder, mixed well and incubated on ice for 1 hour. After centrifuge at […], 4° C. for 20 min, the supernatant was collected and used as the cell extraction. 10 μL of the cell extraction was subjected to a 4-20% sodium dodecyl sulfate polyacrylamide electrophoresis gels (SDS-PAGE, Bio-Rad, California, USA). Proteins were then transferred onto a PVDF membranes (Bio-Rad, California, USA) using a semi-dry transfer cell (Bio-Rad, California, USA) at 10 V for 1 hour. The immunodetection of Citrine was performed with a rabbit polyclonal antibody (GFP antibody NB600-308, Novus Biologicals, Co, USA, dilution to 1:2000). IgG goat anti-rabbit antibody conjugated with horse radish peroxidase was used as a secondary antibody (goat anti-rabbit IgG H&L HRP ab6789, Abcam, Cambridge, UK, dilution to 1:20000). […]

[1] = Secondary structure contents of peptides (DichroWeb analysis); format: physicochemical; settings: various solvents, reducing or non-reducing conditions
Experimental: FIG. 20: Secondary structure contents of BPCH7, BPLH7, and BPKH in various solvents (reducing or non-reducing conditions). Analysis was performed using DichroWeb (CONTIN, dataset 4).

5-day callus cell = experiment: Western blot quantification of Citrine extracted from rice callus; format: cell-based, Oryza sativa, cv. Nipponbare; settings: 72-hour post-infiltration, with vacuum and pressure treatment, area intensity compared with positive control
Experimental: as §1
Confocal laser scanning microscopy (CLSM, ZeissLSM 700, Carl Zeiss, Oberkochen, Germany) was used to evaluate the intracellular uptake of CPP-FP-Citrine every 24 hours. Before the observation by CLSM, the callus on N6D was transferred into a 1.5 mL Eppendorf tube and washed thoroughly with Milli-q water contains 0.1% tween 20 for five times to remove the Citrine on cell surface. […] CPP-FP-Citrine was detected by setting the excitation at 488 nm and emission in a range of 505-600 nm. For distinguish plasma membrane region and cytoplasm region, the callus was additionally incubated with FM4-64 (20 µM, 20 min at RT) for cell membrane stain, and detected by setting the excitation at 405 nm and emission at 560-700. Furthermore, quantification of the intracellular Citrine by western blot immunoassay. […]
We next quantified the Citrine from the cell extraction by western blot. […] As controls, the samples with infiltration of Milli-q water and Citrine only without vacuum and pressure treatment were also analyzed (FIG. 7a). […]

rice cells = experiment: Delivery of DNA into rice cells by linear versus cyclic peptide; format: cell-based
Experimental: BP2 is a cyclic peptide due to its disulphide bond between the two cysteins. This structure improve binding to proteins, peptides and DNA and improves cell survival (reduced cell toxicity) and regeneration. These advantages of the cyclic structure were analysed by studying a linear, non-cyclic, version of BP2 with regards to its potential to delivery.

rice callus = experiment: Delivery of dsRed plasmid DNA into rice callus and dsRed expression; format: cell-based; settings: dsRed plasmid DNA (SEQ ID NO: 1) combined with peptide, after 4 days
Experimental: CPP (BP100 KH9) and dsRed plasmid DNA (Seq ID NO: 1) or Cy3 labelled PNA (peptide nucleic acid) (1:10 molar ratio) were mixed together and incubated for 30 minutes at 4° C. After incubation the volume was made up to 100 μl with water.
Callus from 5-7 days old rice seeds were used for the experiments. To 10 mg of callus, CPP/DNA or CPP/PNA mixture was added and vacuum infiltrated for 15 mins, washed with distilled water and plated on N6 medium.

Row | Sequence | distribution of Citrine in callus cell (rice callus cells) | Citrine fluorescence inside of the cells observed, time after infiltration (rice callus cells; 5-day callus cells, P/C ratio of 100) | secondary structure ([1]; listed as BP2) | Citrine delivered (5-day callus cell) | secondary structure [1] | activity in delivery DNA into rice cells (rice cells) | dsRed expression (red fluorescence) (rice callus) | Citrine fluorescence inside of the cells observed, time after infiltration (rice callus cells; 5-day callus cells, P/C ratio of 1) | Citrine fluorescence inside of the cells first observed, time after infiltration (rice callus cells; 5-day callus cells, P/C ratio of 10) | Citrine florescence observed, time after infiltration (rice callus cells; 21-day rice callus, P/C ratio of 10)
1 | KKLFKKILKYLHHCRGHTVHSHHHCIR (BP2 amino acid sequence, synthetic) [BP100CH7] | located in cell membrane and the cytoplasm regions of the cells | 72 h | higher helix and strand order | 0.043 ng/mg callus |  |  |  |  |  | 
2 | KKLFKKILKYLHHCRGHTVHSHHHCIR [LH7, linear, non-cyclic version of BP2, reference compound] |  |  |  |  | higher degree of unordered structure | significantly lower activity |  |  |  | 
3 | KKLFKKILKYLKHKHKHKHKHKHKHKHKH (BP1 amino acid sequence, synthetic) [BP100 (KH)9] | located in cell membrane and the cytoplasm regions of the cells |  |  | 0.042 ng/mg callus | higher helix and strand order |  | visible red fluorescence | 72 h | 48 h | 48 h
